Laboratory results as given in PubChem BioAssay (NCI).
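Growth conditions: 96-well plates. Treatment: test compound, 48 hours, 5 concentrations. Analysis: linear interpolation between bracketing concentrations; unreached endpoints set to highest concentration. TGI: total growth inhibition.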

Assays:
Test in all cases: inhibition of tumour cell growth, NCI panel, 48 h
M14 melanoma = test system: M14 melanoma
NCI-H522 lung = test system: NCI-H522 lung
K-562 leukemia = test system: K-562 leukemia
TK-10 renal = test system: TK-10 renal
MOLT-4 leukemia = test system: MOLT-4 leukemia
COLO 205 colon = test system: COLO 205 colon
MCF7 breast = test system: MCF7 breast
LOX IMVI melanoma = test system: LOX IMVI melanoma
T-47D breast = test system: T-47D breast
SN12C renal = test system: SN12C renal
HCC-2998 colon = test system: HCC-2998 colon
NCI-H23 lung = test system: NCI-H23 lung
IGROV1 ovarian = test system: IGROV1 ovarian
SK-MEL-28 melanoma = test system: SK-MEL-28 melanoma
SR leukemia = test system: SR leukemia
NCI/ADR-RES ovarian = test system: NCI/ADR-RES ovarian
EKVX NSCLC = test system: EKVX NSCLC
A549 NSCLC = test system: A549 NSCLC
CCRF-CEM leukemia = test system: CCRF-CEM leukemia
KM12 colon = test system: KM12 colon
SNB-19 CNS = test system: SNB-19 CNS
SW-620 colon = test system: SW-620 colon
OVCAR-5 ovarian = test system: OVCAR-5 ovarian
PC-3 prostate = test system: PC-3 prostate
786-0 renal = test system: 786-0 renal
SK-MEL-2 melanoma = test system: SK-MEL-2 melanoma
OVCAR-3 ovarian = test system: OVCAR-3 ovarian
SF-268 CNS = test system: SF-268 CNS
SK-MEL-5 melanoma = test system: SK-MEL-5 melanoma
UACC-257 melanoma = test system: UACC-257 melanoma
HS 578T breast = test system: HS 578T breast
RPMI-8226 leukemia = test system: RPMI-8226 leukemia
DU-145 prostate = test system: DU-145 prostate
SF-539 CNS = test system: SF-539 CNS
CAKI-1 renal = test system: CAKI-1 renal
ACHN renal = test system: ACHN renal
MDA-MB-435 = test system: MDA-MB-435
MDA-N = test system: MDA-N
HCT-116 colon = test system: HCT-116 colon
NCI-H460 lung = test system: NCI-H460 lung
SF-295 CNS = test system: SF-295 CNS
OVCAR-8 ovarian = test system: OVCAR-8 ovarian
HOP-62 NSCLC = test system: HOP-62 NSCLC
UO-31 renal = test system: UO-31 renal
SNB-75 CNS = test system: SNB-75 CNS

## C=C1C(=O)[C@@]23CC[C@@H]4[C@@]5(C)CCC[C@@]4(OC5=O)C2(C)CC[C@]1(OC)C3 (stereo not given in full)
M14 melanoma
  TGI: 4.25 µM
NCI-H522 lung
  TGI: 2.36 µM
K-562 leukemia
  TGI: 1.24 µM
TK-10 renal
  TGI: 3.18 µM
MOLT-4 leukemia
  TGI: 1.98 µM
COLO 205 colon
  TGI: 5.64 µM
MCF7 breast
  TGI: 1.22 µM
LOX IMVI melanoma
  TGI: 1.19 µM
T-47D breast
  TGI: 4.6 µM
SN12C renal
  TGI: 4.92 µM
HCC-2998 colon
  TGI: 1.37 µM
NCI-H23 lung
  TGI: 5.07 µM
IGROV1 ovarian
  TGI: 4.76 µM
SK-MEL-28 melanoma
  TGI: 3.66 µM
SR leukemia
  TGI: 1.46 µM
NCI/ADR-RES ovarian
  TGI: 6.59 µM
EKVX NSCLC
  TGI: 21.8 µM
A549 NSCLC
  TGI: 12.7 µM
CCRF-CEM leukemia
  TGI: 0.436 µM
KM12 colon
  TGI: 6.85 µM
SNB-19 CNS
  TGI: 3.63 µM
SW-620 colon
  TGI: 3.23 µM
OVCAR-5 ovarian
  TGI: 3.69 µM
PC-3 prostate
  TGI: 2.44 µM
786-0 renal
  TGI: 1.17 µM
SK-MEL-2 melanoma
  TGI: 2.58 µM
OVCAR-3 ovarian
  TGI: 2.34 µM
SF-268 CNS
  TGI: 7.2 µM
SK-MEL-5 melanoma
  TGI: 3.39 µM
UACC-257 melanoma
  TGI: 3.81 µM
HS 578T breast
  TGI: 6.69 µM
RPMI-8226 leukemia
  TGI: 0.864 µM
DU-145 prostate
  TGI: 18 µM
SF-539 CNS
  TGI: 3.21 µM
CAKI-1 renal
  TGI: 3.41 µM
ACHN renal
  TGI: 3.98 µM
MDA-MB-435
  TGI: 3.22 µM
MDA-N
  TGI: 2.02 µM
HCT-116 colon
  TGI: 1.88 µM
NCI-H460 lung
  TGI: 6.92 µM
SF-295 CNS
  TGI: 13.4 µM
OVCAR-8 ovarian
  TGI: 4 µM
HOP-62 NSCLC
  TGI: 4.56 µM
UO-31 renal
  TGI: 3.19 µM
SNB-75 CNS
  TGI: 3.07 µM
